According to patent publication US5385927A, “Hydroxy-3-[1-(1H-imidazol-4-yl)alkyl]-benzenecarboximidamides and their use in treating glaucoma” (priority 1993, dated 1995):
Read-outs that look alike come from different tables or passages of the source.

Legend:
[1] = system: presynaptic α2-adrenergic receptor (guinea-pig ileum); test: Inhibition of the contraction of the isolated guinea-pig ileum induced by electrical stimulation (presynaptic α2-adrenergic agonist properties); details: for IC50: concentration that reduces by 50% the intensity of the muscle contraction, electrical stimulation
Text: Stimulation of the guinea-pig ileum.
Longitudinal muscle fragments attached to an isometric force indicator are immersed in Tyrode's solution and are stretched with a force of 1 g (G. M. DREW, Brit. J. Pharmacol. 64, (1978), 293-300; M. ANDREJAK et al., Naunyn-Schmiedeberg's Arch. Pharmacol. 314, (1980), 83-87).
Electrical stimulation of the parasympathetic nerves associated with the ileum fragments causes a contraction of the muscle. This contraction is reduced in the presence of a presynaptic α2 -agonist and the magnitude by which the contraction is reduced depends on the concentration of the agonist used. This effect is antagonized by the simultaneous presence of an α2 -antagonist such as α-yohimbine.
The compounds to be studied have been tested at increasing concentrations ranging from 10^-10 to 10^-3 mole/l. The concentration (IC50 in mole/l) that reduces by 50% the intensity of the muscle contraction is determined.
Table I gives the IC50 concentrations (in mole/l) obtained for the compounds of the invention (except for compound 6, for which compound the IC30 concentration is given).

[2] = system: intraocular pressure of the treated eye; test: Intraocular pressure variation in awake normotensive rabbits, treated eye; assay type: in vivo, rabbit (New Zealand White)
Procedure: the 1st column indicates the compound tested,
the 2nd column indicates the concentration of the compound, in percent (in weight per volume),
the 3rd, 4th, 5th, 6th and 7th columns indicate the variation in intraocular pressure (ΔP) expressed in percent, with respect to an animal treated with a collyrium containing no compound to be tested, measured after 30 minutes, 1, 2, 3 or 6 hours respectively.

male NMRI mice = test: Toxicity by means of Irwin's test, intraperitoneal; assay type: in vivo, mouse (NMRI); details: death of two out of three animals within 24 hours
Procedure: The toxicity of the compounds according to the present invention has been determined in male NMRI mice by means of Irwin's test (S. IRWIN, Psychopharmacologia, 13, (1968), 222-257). Progressive doses of the compound to be tested are administered intraperitoneally to groups of three mice until the lethal dose is reached (dose which causes the death of two out of three animals within 24 hours).
It can be seen from this Table that the compounds of the invention have a very low toxicity.

[3] = system: mucous membrane of the treated eye (conjunctivae); test: Effect on the mucous membrane of the treated eye (hypohemia); assay type: in vivo, rabbit (New Zealand White)
Text: Hypohemia manifests itself by insufficient blood irrigation of the conjunctiva, which can result in irreversible local ischemias.

[4] = background of the patent, cited from earlier work
[5] = system: intraocular pressure of the contralateral eye
Procedure: All the doses tested are administered to three rabbits (weight 2-2.5 kg) of both sexes according to a "cross-over" experimental protocol in which each animal is also used in the control group. […] The intraocular pressure is measured tonometrically with a BIORAD pneumatonograph (DIGILAB MODULAR ONE) after local anesthesia using 2 drops of a 0.4% (in weight per volume) solution of oxybuprocaine hydrochloride.

pupil diameter = test: Effect on the pupil diameter of the treated eye and of the contralateral eye; details: clonidine: ipsilateral eye at 0.1 and 0.5%; compounds of the invention: treated or contralateral eye at doses of Table II
Procedure: The pupil diameters are measured visually at the point of maximal vertical diameter, using a millimetric metal standard.

[6] = ocular or topical use unless stated

Procedure for heart rate: The compounds to be studied are administered as a solution in 30 microliters of sterile distilled water (collyrium) at concentrations ranging from 0 (reference) to 0.5% (in weight per volume).

## CC(c1c[nH]cn1)c1cccc(C(=N)N)c1O (single isomer, unassigned; (+)) [D, (+)-2-hydroxy-3-[1-(1H-imidazol-4-yl)ethyl]-benzenecarboximidamide]
[1]
  IC50: 3.9 nM
[2]; 0.01% w/v
  ΔP [30 min], variation in intraocular pressure: -14.1%
  ΔP [2 h], variation in intraocular pressure: -17.7%
  ΔP [6 h], variation in intraocular pressure: -15.1%
Male NMRI mice
  Lethal dose: 25 mg/kg

## CC(c1c[nH]cn1)c1cccc(C(=N)N)c1O (single isomer, unassigned; (-)) [E, (-)-2-hydroxy-3-[1-(1H-imidazol-4-yl)ethyl]-benzenecarboximidamide]
[1]
  IC50: 200 nM
[2]; 0.5% w/v
  ΔP [30 min], variation in intraocular pressure: -11.6%
  ΔP [1 h], variation in intraocular pressure: -12.6%
  ΔP [6 h], variation in intraocular pressure: -6.6%
Male NMRI mice
  Lethal dose: 248 mg/kg
[3]; 0.5%
  Hypohemia of the treated eye: do not induce hypohemia

## N=C(N)c1cccc(Cc2c[nH]cn2)c1O [A, 2-hydroxy-3-(1H-imidazol-4-ylmethyl)-benzenecarboximidamide]
[1]
  IC50: 62 nM
[2]; 0.05% w/v
  ΔP [30 min], variation in intraocular pressure: -5.9%
  ΔP [2 h], variation in intraocular pressure: -18.6%
  ΔP [6 h], variation in intraocular pressure: -1.1%
[2]; 0.1% w/v
  ΔP [30 min], variation in intraocular pressure: -9.2%
  ΔP [2 h], variation in intraocular pressure: -21.2%
  ΔP [6 h], variation in intraocular pressure: -16.1%
Male NMRI mice
  Lethal dose: > 216 mg/kg
[3]; 0.1%
  Hypohemia of the treated eye: do not induce hypohemia

## CNC(=N)c1cccc(Cc2c[nH]cn2)c1O [B, 2-hydroxy-3-(1H-imidazol-4-ylmethyl)-N-methyl-benzenecarboximidamide]
[1]
  IC50: 2500 nM
[2]; 0.5% w/v
  ΔP [30 min], variation in intraocular pressure: -5.5%
  ΔP [1 h], variation in intraocular pressure: -10.8%
  ΔP [2 h], variation in intraocular pressure: -13.3%
  ΔP [3 h], variation in intraocular pressure: -12.8%
  ΔP [6 h], variation in intraocular pressure: -7.6%
Male NMRI mice
  Lethal dose: 230 mg/kg

## N=C(NO)c1cccc(Cc2c[nH]cn2)c1O [C, N,2-dihydroxy-3-(1H-imidazol-4-ylmethyl)-benzenecarboximidamide]
[1]
  IC50: 140 nM
Male NMRI mice
  Lethal dose: 232 mg/kg

## CC(C)NC(=N)c1cccc(Cc2c[nH]cn2)c1O [F, 2-hydroxy-3-(1H-imidazol-4-ylmethyl)-N-(1-methylethyl)-benzenecarboximidamide]
[1]
  IC50: 6400 nM
Male NMRI mice
  Lethal dose: 155 mg/kg

## N=C(NN)c1cccc(Cc2c[nH]cn2)c1O [G, 2-hydroxy-3-(1H-imidazol-4-ylmethyl)-benzenecarboximidic acid hydrazide]
[1]; IC30 printed in the IC50 column
  IC30, inhibition of the contraction of the guinea-pig ileum: 2500 nM
Male NMRI mice
  Lethal dose: 416 mg/kg

## CC(=O)Nc1nnc(S(N)(=O)=O)s1 [acetazolamide]
[4]; carbonic anhydrase inhibitors, systemic administration
  Side-effects (in words): depression of the central nervous system, weight loss and, mainly, bone marrow hypofunction

## Clc1cccc(Cl)c1N=C1NCCN1 [clonidine]
Heart rate; 0.01%, after 3 hours
  Slowing of the heart rate: 10.7%
Heart rate; 0.1%, after only 1 hour
  Slowing of the heart rate: 17.9%
[5]; 0.01%, after 2 hours
  ΔP in the contralateral eye: -9.5%
[5]; 0.01%, after 6 hours
  ΔP in the contralateral eye: -9.2%
[5]; 0.1%, after 2 hours
  ΔP in the contralateral eye: -10.2%
[5]; 0.1%, after 6 hours
  ΔP in the contralateral eye: +2.6%
[5]; 0.5%, after 2 hours
  ΔP in the contralateral eye: -26.3%
[5]; 0.5%, after 6 hours
  ΔP in the contralateral eye: +15%
[1]
  IC50: 17 nM
[2]
  Biphasic effect on intraocular pressure (in words): initially induces hypertension of the treated eye, which effect increases with the concentration of the product
[2]; 0.01% w/v
  ΔP [30 min], variation in intraocular pressure: +8.0%
  ΔP [2 h], variation in intraocular pressure: -8.8%
  ΔP [6 h], variation in intraocular pressure: -9.2%
[2]; 0.1% w/v
  ΔP [30 min], variation in intraocular pressure: +23.4%
  ΔP [2 h], variation in intraocular pressure: +36.2%
  ΔP [3 h], variation in intraocular pressure: +11.4%
[2]; 0.5% w/v
  ΔP [30 min], variation in intraocular pressure: +31.4%
  ΔP [2 h], variation in intraocular pressure: +39.4%
  ΔP [3 h], variation in intraocular pressure: +8.6%
[4]; [6]
  Side-effects (in words): mydriasis, as well as an initial phase of ocular hypertension (biphasic effect)
[3]; 0.01%, after 30 minutes
  Whitening of the conjunctivae: whitening of the conjunctivae is observed after 30 minutes
[3]; 0.1%, after 1 hour
  Whitening of the conjunctivae: this effect is still present after 1 hour
Pupil diameter
  Change in the pupil diameter / mydriasis (in words): causes an important mydriasis of the ipsilateral eye

## CNCC(O)c1ccc(OC(=O)C(C)(C)C)c(OC(=O)C(C)(C)C)c1 (stereo not shown) [dipivalylepinephrine]
[4]; [6]
  Side-effects (in words): sensations of burning or irritation
